Measured values published in ChEMBL document CHEMBL5236661, “A new selective inhibitor for IMP-1 metallo-β-lactamase, 3Z,5E-octa-3,5-diene-1,3,4-tricarboxylic acid-3,4-anhydride” (Bioorg Med Chem, 2023).
In brackets after ≈: the same amount, converted by molar mass. Activity calls are given as the source filed them. The calls are words filed in the database; no cut-off is given here.

How the values were obtained:
Escherichia coli [1] = assay: Antibacterial activity against Escherichia coli KB366 expressing IMP-1 assessed as inhibition of bacterial growth at 0.03 ug in absence of meropenem incubated overnight by paper disk method; assay type: functional, organism-based; conditions: dose 0.03 µg
Pseudomonas aeruginosa [2] = assay: Antibacterial activity against Pseudomonas aeruginosa KB367 expressing IMP-1 assessed as inhibition of bacterial growth at 10 ug in presence of meropenem incubated overnight by paper disk method; assay type: functional; conditions: read-out: IZ
Pseudomonas aeruginosa [3] = assay: Antibacterial activity against Pseudomonas aeruginosa KB367 expressing IMP-1 assessed as inhibition of bacterial growth at 0.3 ug in absence of meropenem incubated overnight by paper disk method; assay type: functional, organism-based; conditions: dose 0.3 µg
Escherichia coli [4] = assay: Antibacterial activity against Escherichia coli KB366 expressing IMP-1 assessed as inhibition of bacterial growth at 30 ug in presence of meropenem incubated overnight by paper disk method; assay type: functional; conditions: read-out: IZ
Pseudomonas aeruginosa [5] = assay: Antibacterial activity against Pseudomonas aeruginosa KB367 expressing IMP-1 assessed as inhibition of bacterial growth at 1 ug in absence of meropenem incubated overnight by paper disk method; assay type: functional, organism-based; conditions: dose 1.0 µg
Escherichia coli [6] = assay: Antibacterial activity against Escherichia coli KB366 expressing IMP-1 assessed as inhibition of bacterial growth at 0.3 ug in presence of meropenem incubated overnight by paper disk method; assay type: functional; conditions: read-out: IZ
Pseudomonas aeruginosa [7] = assay: Antibacterial activity against Pseudomonas aeruginosa KB367 expressing IMP-1 assessed as inhibition of bacterial growth at 30 ug in presence of meropenem incubated overnight by paper disk method; assay type: functional; conditions: read-out: IZ
Escherichia coli [8] = assay: Antibacterial activity against Escherichia coli KB366 expressing IMP-1 assessed as inhibition of bacterial growth at 0.03 ug in presence of meropenem incubated overnight by paper disk method; assay type: functional; conditions: read-out: IZ
Pseudomonas aeruginosa [9] = assay: Antibacterial activity against Pseudomonas aeruginosa KB367 expressing IMP-1 assessed as inhibition of bacterial growth at 0.03 ug in presence of meropenem incubated overnight by paper disk method; assay type: functional, organism-based; conditions: dose 0.03 µg
[10] = Inhibition of bacterial Metallo-beta-lactamase IMP-1 using nitrocefin as substrate pre-incubated for 15 mins followed by substrate addition by microplate reader; set-up: species or system Bacteria
Escherichia coli [11] = assay: Antibacterial activity against Escherichia coli KB366 expressing IMP-1 assessed as inhibition of bacterial growth at 10 ug in absence of meropenem incubated overnight by paper disk method; assay type: functional, organism-based; conditions: dose 10.0 µg
Escherichia coli [12] = assay: Antibacterial activity against Escherichia coli KB366 expressing IMP-1 assessed as inhibition of bacterial growth at 0.1 ug in absence of meropenem incubated overnight by paper disk method; assay type: functional, organism-based; conditions: dose 0.1 µg
Pseudomonas aeruginosa [13] = assay: Antibacterial activity against Pseudomonas aeruginosa KB367 expressing IMP-1 assessed as inhibition of bacterial growth at 3 ug in absence of meropenem incubated overnight by paper disk method; assay type: functional, organism-based; conditions: dose 3.0 µg
Pseudomonas aeruginosa [14] = assay: Antibacterial activity against Pseudomonas aeruginosa KB367 expressing IMP-1 assessed as inhibition of bacterial growth at 0.03 ug in absence of meropenem incubated overnight by paper disk method; assay type: functional, organism-based; conditions: dose 0.03 µg
Escherichia coli [15] = assay: Antibacterial activity against Escherichia coli KB366 expressing IMP-1 assessed as inhibition of bacterial growth at 30 ug in absence of meropenem incubated overnight by paper disk method; assay type: functional, organism-based; conditions: dose 30.0 µg
Pseudomonas aeruginosa [16] = assay: Antibacterial activity against Pseudomonas aeruginosa KB367 expressing IMP-1 assessed as inhibition of bacterial growth at 100 ug in presence of meropenem incubated overnight by paper disk method; assay type: functional; conditions: read-out: IZ
Pseudomonas aeruginosa [17] = assay: Antibacterial activity against Pseudomonas aeruginosa KB367 expressing IMP-1 assessed as inhibition of bacterial growth at 3 ug in presence of meropenem incubated overnight by paper disk method; assay type: functional; conditions: read-out: IZ
Escherichia coli [18] = assay: Antibacterial activity against Escherichia coli KB366 expressing IMP-1 assessed as inhibition of bacterial growth at 10 ug in presence of meropenem incubated overnight by paper disk method; assay type: functional; conditions: read-out: IZ
Pseudomonas aeruginosa [19] = assay: Antibacterial activity against Pseudomonas aeruginosa KB367 expressing IMP-1 assessed as inhibition of bacterial growth at 0.01 ug in presence of meropenem incubated overnight by paper disk method; assay type: functional, organism-based; conditions: dose 0.01 µg
Escherichia coli [20] = assay: Antibacterial activity against Escherichia coli KB366 expressing IMP-1 assessed as inhibition of bacterial growth at 100 ug in presence of meropenem incubated overnight by paper disk method; assay type: functional; conditions: read-out: IZ
Pseudomonas aeruginosa [21] = assay: Antibacterial activity against Pseudomonas aeruginosa KB367 expressing IMP-1 assessed as inhibition of bacterial growth at 0.1 ug in absence of meropenem incubated overnight by paper disk method; assay type: functional, organism-based; conditions: dose 0.1 µg
Escherichia coli [22] = assay: Antibacterial activity against Escherichia coli KB366 expressing IMP-1 assessed as inhibition of bacterial growth at 3 ug in absence of meropenem incubated overnight by paper disk method; assay type: functional, organism-based; conditions: dose 3.0 µg
Pseudomonas aeruginosa [23] = assay: Antibacterial activity against Pseudomonas aeruginosa KB367 expressing IMP-1 assessed as inhibition of bacterial growth at 30 ug in absence of meropenem incubated overnight by paper disk method; assay type: functional, organism-based; conditions: dose 30.0 µg
Escherichia coli [24] = assay: Antibacterial activity against Escherichia coli KB366 expressing IMP-1 assessed as inhibition of bacterial growth at 0.01 ug in absence of meropenem incubated overnight by paper disk method; assay type: functional, organism-based; conditions: dose 0.01 µg
Escherichia coli [25] = assay: Antibacterial activity against Escherichia coli KB366 expressing IMP-1 assessed as inhibition of bacterial growth at 1 ug in presence of meropenem incubated overnight by paper disk method; assay type: functional; conditions: read-out: IZ
Pseudomonas aeruginosa [26] = assay: Antibacterial activity against Pseudomonas aeruginosa KB367 expressing IMP-1 assessed as inhibition of bacterial growth at 100 ug in absence of meropenem incubated overnight by paper disk method; assay type: functional, organism-based; conditions: dose 100.0 µg
Pseudomonas aeruginosa [27] = assay: Antibacterial activity against Pseudomonas aeruginosa KB367 expressing IMP-1 assessed as inhibition of bacterial growth at 0.01 ug in absence of meropenem incubated overnight by paper disk method; assay type: functional, organism-based; conditions: dose 0.01 µg
Escherichia coli [28] = assay: Antibacterial activity against Escherichia coli KB366 expressing IMP-1 assessed as inhibition of bacterial growth at 3 ug in presence of meropenem incubated overnight by paper disk method; assay type: functional; conditions: read-out: IZ
Pseudomonas aeruginosa [29] = assay: Antibacterial activity against Pseudomonas aeruginosa KB367 expressing IMP-1 assessed as inhibition of bacterial growth at 0.3 ug in presence of meropenem incubated overnight by paper disk method; assay type: functional, organism-based; conditions: dose 0.3 µg
Escherichia coli [30] = assay: Antibacterial activity against Escherichia coli KB366 expressing IMP-1 assessed as inhibition of bacterial growth at 100 ug in absence of meropenem incubated overnight by paper disk method; assay type: functional, organism-based; conditions: dose 100.0 µg
Pseudomonas aeruginosa [31] = assay: Antibacterial activity against Pseudomonas aeruginosa KB367 expressing IMP-1 assessed as inhibition of bacterial growth at 1 ug in presence of meropenem incubated overnight by paper disk method; assay type: functional; conditions: for zone of inhibition at 1 µg/disc: read-out: IZ
Pseudomonas aeruginosa [32] = assay: Antibacterial activity against Pseudomonas aeruginosa KB367 expressing IMP-1 assessed as inhibition of bacterial growth at 0.1 ug in presence of meropenem incubated overnight by paper disk method; assay type: functional, organism-based; conditions: dose 0.1 µg
Pseudomonas aeruginosa [33] = assay: Antibacterial activity against Pseudomonas aeruginosa KB367 expressing IMP-1 assessed as inhibition of bacterial growth at 10 ug in absence of meropenem incubated overnight by paper disk method; assay type: functional, organism-based; conditions: dose 10.0 µg
Escherichia coli [34] = assay: Antibacterial activity against Escherichia coli KB366 expressing IMP-1 assessed as inhibition of bacterial growth at 0.01 ug in presence of meropenem incubated overnight by paper disk method; assay type: functional; conditions: dose 0.01 µg
Escherichia coli [35] = assay: Antibacterial activity against Escherichia coli KB366 expressing IMP-1 assessed as inhibition of bacterial growth at 0.1 ug in presence of meropenem incubated overnight by paper disk method; assay type: functional; conditions: read-out: IZ
Escherichia coli [36] = assay: Antibacterial activity against Escherichia coli KB366 expressing IMP-1 assessed as inhibition of bacterial growth at 1 ug in absence of meropenem incubated overnight by paper disk method; assay type: functional, organism-based; conditions: dose 1.0 µg
Escherichia coli [37] = assay: Antibacterial activity against Escherichia coli KB366 expressing IMP-1 assessed as inhibition of bacterial growth at 0.3 ug in absence of meropenem incubated overnight by paper disk method; assay type: functional, organism-based; conditions: dose 0.3 µg

IC50 [10] [µg/mL] | Compound | inhibition zone (IZ) (Escherichia coli [1]) | zone of inhibition at 10 µg/disc (Pseudomonas aeruginosa [2]) [mm] | inhibition zone (IZ) (Pseudomonas aeruginosa [3]) | zone of inhibition at 30 µg/disc (Escherichia coli [4]) [mm] | inhibition zone (IZ) (Pseudomonas aeruginosa [5]) | zone of inhibition at 0.3 µg/disc (Escherichia coli [6]) [mm] | zone of inhibition at 30 µg/disc (Pseudomonas aeruginosa [7]) [mm] | zone of inhibition at 0.03 µg/disc (Escherichia coli [8]) [mm] | inhibition zone (IZ) (Pseudomonas aeruginosa [9]) | inhibition zone (IZ) (Escherichia coli [11]) | inhibition zone (IZ) (Escherichia coli [12]) | inhibition zone (IZ) (Pseudomonas aeruginosa [13]) | inhibition zone (IZ) (Pseudomonas aeruginosa [14]) | inhibition zone (IZ) (Escherichia coli [15]) | zone of inhibition at 100 µg/disc (Pseudomonas aeruginosa [16]) [mm] | zone of inhibition at 3 µg/disc (Pseudomonas aeruginosa [17]) [mm] | zone of inhibition at 10 µg/disc (Escherichia coli [18]) [mm] | inhibition zone (IZ) (Pseudomonas aeruginosa [19]) | zone of inhibition at 100 µg/disc (Escherichia coli [20]) [mm] | also measured
2.2 | CC/C=C/C(C(=O)[O-])=C(\CCC)C(=O)[O-].[Na+].[Na+] | inactive | 14 | inactive | 28 | inactive | 16 | 19 | 11 | inactive | inactive | inactive | inactive | inactive | inactive | 23 | 7 | 26 | inactive | 30 | inhibition zone (IZ) (Pseudomonas aeruginosa [21]): inactive; inhibition zone (IZ) (Escherichia coli [22]): inactive; inhibition zone (IZ) (Pseudomonas aeruginosa [23]): inactive; inhibition zone (IZ) (Escherichia coli [24]): inactive; zone of inhibition at 1 µg/disc (Escherichia coli [25]): 19 mm; inhibition zone (IZ) (Pseudomonas aeruginosa [26]): inactive; inhibition zone (IZ) (Pseudomonas aeruginosa [27]): inactive; zone of inhibition at 3 µg/disc (Escherichia coli [28]): 21 mm; inhibition zone (IZ) (Pseudomonas aeruginosa [29]): inactive; inhibition zone (IZ) (Escherichia coli [30]): inactive; inhibition zone (IZ) (Pseudomonas aeruginosa [31]; dose 1.0 µg): inactive; inhibition zone (IZ) (Pseudomonas aeruginosa [32]): inactive; inhibition zone (IZ) (Pseudomonas aeruginosa [33]): inactive; inhibition zone (IZ) (Escherichia coli [34]): inactive; zone of inhibition at 0.1 µg/disc (Escherichia coli [35]): 13 mm; inhibition zone (IZ) (Escherichia coli [36]): inactive; inhibition zone (IZ) (Escherichia coli [37]): inactive
0.55 (≈ 1.58 µM) | CCCCC(C(=O)N1CCCCC1)=C(C(=O)O)c1ccc(O)c(O)c1 | inactive | 12 | inactive | 23 | inactive | 15 | 13 | 10 | inactive | inactive | inactive | inactive | inactive | inactive | 16 | 12 | 21 | inactive | 24 | inhibition zone (IZ) (Pseudomonas aeruginosa [21]): inactive; inhibition zone (IZ) (Escherichia coli [22]): inactive; inhibition zone (IZ) (Pseudomonas aeruginosa [23]): inactive; inhibition zone (IZ) (Escherichia coli [24]): inactive; zone of inhibition at 1 µg/disc (Escherichia coli [25]): 17 mm; inhibition zone (IZ) (Pseudomonas aeruginosa [26]): inactive; inhibition zone (IZ) (Pseudomonas aeruginosa [27]): inactive; zone of inhibition at 3 µg/disc (Escherichia coli [28]): 20 mm; inhibition zone (IZ) (Pseudomonas aeruginosa [29]): inactive; inhibition zone (IZ) (Escherichia coli [30]): inactive; zone of inhibition at 1 µg/disc (Pseudomonas aeruginosa [31]): 9 mm; inhibition zone (IZ) (Pseudomonas aeruginosa [32]): inactive; inhibition zone (IZ) (Pseudomonas aeruginosa [33]): inactive; inhibition zone (IZ) (Escherichia coli [34]): inactive; zone of inhibition at 0.1 µg/disc (Escherichia coli [35]): 12 mm; inhibition zone (IZ) (Escherichia coli [36]): inactive; inhibition zone (IZ) (Escherichia coli [37]): inactive
0.56 | CCCC/C(C(=O)[O-])=C(/C(=O)[O-])c1ccc(O)c(O)c1.[Na+].[Na+] | inactive | 14 | inactive | 27 | inactive | 12 | 18 | 9 | inactive | inactive | inactive | inactive | inactive | inactive | 20 | 11 | 22 | inactive | 31 | inhibition zone (IZ) (Pseudomonas aeruginosa [21]): inactive; inhibition zone (IZ) (Escherichia coli [22]): inactive; inhibition zone (IZ) (Pseudomonas aeruginosa [23]): inactive; inhibition zone (IZ) (Escherichia coli [24]): inactive; zone of inhibition at 1 µg/disc (Escherichia coli [25]): 15 mm; inhibition zone (IZ) (Pseudomonas aeruginosa [26]): inactive; inhibition zone (IZ) (Pseudomonas aeruginosa [27]): inactive; zone of inhibition at 3 µg/disc (Escherichia coli [28]): 19 mm; inhibition zone (IZ) (Pseudomonas aeruginosa [29]): inactive; inhibition zone (IZ) (Escherichia coli [30]): inactive; zone of inhibition at 1 µg/disc (Pseudomonas aeruginosa [31]): 9 mm; inhibition zone (IZ) (Pseudomonas aeruginosa [32]): inactive; inhibition zone (IZ) (Pseudomonas aeruginosa [33]): inactive; inhibition zone (IZ) (Escherichia coli [34]): inactive; zone of inhibition at 0.1 µg/disc (Escherichia coli [35]): 10 mm; inhibition zone (IZ) (Escherichia coli [36]): inactive; inhibition zone (IZ) (Escherichia coli [37]): inactive
